In US5110976A, “Insecticidal composition comprising more than one active ingredient” (priority 1985, dated 1992):

What was measured:
Musca domestica = test: Topical LD50 (Table 3); assay type: in vivo, house fly (Musca domestica), 3-5 days' old females; conditions: topical, dorsal cuticulum; 24 hours
Procedure: (§1) In Table 3 the LD50 values of the Ig and Ii isomers and those of the Ib isomer-pair are disclosed. The data are topically measured.
(§2) The active ingredients are dissolved in 2-ethoxyethanol (cellosolve) and 0.3 μl droplets of the solutions are applied onto the dorsal cuticulum of 3-5 days' old female house flies. 10 animals are used and 2 parallels are carried out for each dose. The tests are carried out for 5 dose levels between activity limits of 0% and 100%. After treatment the flies are placed into glass vials. Mortality is determined after 24 hours. Data are transformed to log10 dosage and probit mortality. LD50 and confidence interval values are calculated by linear regression analysis of the log-probit data. The expected values required for the calculation of synergism are obtained by means of harmonic average. The synergistic factor is the quotient of the expected and measured values.

Tribolium confusum = test: Contact test on Tribolium confusum (Table 12); assay type: in vivo; conditions: Tribolium confusum, 24 h
Procedure: (§3) The active ingredient is dissolved in a 1:2 mixture of oil and acetone; filter paper discs (Whatman No. 1, diameter 9 cm) are impregnated with the solutions of the corresponding stereoisomers and enantiomer-pairs, respectively. The acetone is allowed to evaporate, whereupon the insects are exposed to filter papers discs placed in Petri-dishes. Three parallels are used on each dose and 15 insects are placed into each Petri-dish. The percental mortality is determined after 24 hours. The corrected percent mortality is calculated by means of the Abbot Formula.
It appears from Table 12 that the increased activity shown in Example 41 is due to the synergistic effect of the trans-isomers to Tribolium confusum.

T. confusum [1] = test: Contact method, synergism between stereoisomers (Table 2); assay type: in vivo; conditions: Tribolium confusum, 24 h
Procedure: The stereoisomers are dissolved in a 1:2 mixture of mineral oil and acetone and filter paper discs (Whatman No. 1., diameter 9 cm) are impregnated with the corresponding dosage of the solution of the active ingredient. The acetone is allowed to evaporate and the insects are examined on filter paper discs placed into Petri-dishes. Three parallels are used for each dose and 15 animals are placed in each Petri-dish. Mortality rate is determined after 24 hours. The corrected mortality % data are calculated by means of the Abbot formula.
The test is carried out on T. confusum and the following results are obtained by the contact method for various active ingredient doses.
The test is carried out according to the method described in Example 20.

T. confusum [2] = test: Activity as function of time, toxic symptoms (Table 16); assay type: in vivo, flour beetle (T. confusum), imagos
Procedure: as §3
Activity of cypermethrin stereoisomer-pairs as function of time on flour beetle (T. Confusum).
Flour beetle (T. confusum) imagos are exposed in Petri-dishes according to the method described in Example 43. For each dose 3 parallels are used and 15 animals are applied for each parallel test. In each point of time the insects lying on their backs are counted and the percental results are expressed in Table 16.

T. confusum [3] = test: Topical LD50 (Table 3); assay type: in vivo, 1-2 weeks' old imagos; conditions: topical, abdominal side
Procedure: as §1, §2
The active ingredients are dissolved in 2-ethoxyethanol and 0.3 μl droplets of the solutions are applied onto the abdominal side of 1-2 weeks' old imagos. Treatment is carried out with 2 parallels and 20 animals for each dose by using 5 dose levels in the range between activity limits of 0% and 100%. Evaluation and determination of LD50 values and synergistic factors are carried out as described in Example 21.

## CC1(C)[C@@H](C=C(Cl)Cl)[C@@H]1C(=O)O[C@@H](C#N)c1cccc(Oc2ccccc2)c1 [Ii]
Musca domestica
  LD50 measured: 141.9 ng/insect
Tribolium confusum; 0.11 mg/disc
  mortality at 110 µg/disc: 0%
Tribolium confusum; 0.33 mg/disc
  mortality at 330 µg/disc: 0%
Tribolium confusum; 1.00 mg/disc
  mortality at 1000 µg/disc: 71%
Tribolium confusum; 3.00 mg/disc
  mortality at 3000 µg/disc: 90%
T. confusum [1]; 0.11 mg/disc
  mortality at 110 µg/disc: 0%
T. confusum [1]; 0.33 mg/disc
  mortality at 330 µg/disc: 0%
T. confusum [1]; 1.00 mg/disc
  mortality at 1000 µg/disc: 71%
T. confusum [1]; 3.00 mg/disc
  mortality at 3000 µg/disc: 90%
T. confusum [2]; 30 minutes
  % of insects showing toxic symptoms: 0%
T. confusum [2]; 30 minutes, 0.33 mg/disc
  % of insects showing toxic symptoms: 0%
T. confusum [2]; 30 minutes, 1.00 mg/disc
  % of insects showing toxic symptoms: 0%
T. confusum [2]; 30 minutes, 3.00 mg/disc
  % of insects showing toxic symptoms: 15%
T. confusum [2]; 60 minutes
  % of insects showing toxic symptoms: 0%
T. confusum [2]; 60 minutes, 0.33 mg/disc
  % of insects showing toxic symptoms: 0%
T. confusum [2]; 60 minutes, 1.00 mg/disc
  % of insects showing toxic symptoms: 0%
T. confusum [2]; 60 minutes, 3.00 mg/disc
  % of insects showing toxic symptoms: 70%
T. confusum [2]; 120 minutes
  % of insects showing toxic symptoms: 0%
T. confusum [2]; 120 minutes, 0.33 mg/disc
  % of insects showing toxic symptoms: 0%
T. confusum [2]; 120 minutes, 1.00 mg/disc
  % of insects showing toxic symptoms: 0%
T. confusum [2]; 120 minutes, 3.00 mg/disc
  % of insects showing toxic symptoms: 100%
T. confusum [2]; 180 minutes
  % of insects showing toxic symptoms: 0%
T. confusum [2]; 180 minutes, 0.33 mg/disc
  % of insects showing toxic symptoms: 0%
T. confusum [2]; 180 minutes, 1.00 mg/disc
  % of insects showing toxic symptoms: 0%
T. confusum [2]; 180 minutes, 3.00 mg/disc
  % of insects showing toxic symptoms: 100%
T. confusum [3]
  LD50 measured: 1291.8 ng/insect
